Results on 9 compounds are retold here after EP4168396B1, “COMPOUNDS FOR THE TREATMENT OF NEURODEGENERATIVE DISEASES” (Universite De Franche Comte, priority 2020, dated 2021).

Assay [1] deals with T1, Human butyrylcholinesterase (hBuChE) (Homo sapiens, UniProt P06276).
T1 construct: Human butyrylcholinesterase (hBuChE) isolated from human plasma was from Vivonics; purchased Vivonics (Bedford, MA, USA); host or cells: human plasma
Kind of assay: Cholinesterase inhibition assay (Ellman), hBuChE. Type of assay: biochemical. On the procedure:
Inhibitory activities of the test compounds against the human cholinesterases were measured using the spectrophotometric method described by Ellman et al.^4, as modified for 96-well microplates. 5,5'-Dithiobis-(2-nitrobenzoic acid) (DTNB), acetylthiocholine iodide (ATC), butyrylthiocholine iodide (BTC), and human recombinant acetylcholinesterase (hAChE) were purchased from Sigma-Aldrich. Human butyrylcholinesterase (hBuChE) isolated from human plasma was from Vivonics (Bedford, MA, USA). […] The stock solutions of the test compounds were prepared by dissolving in DMSO to obtain a concentration of 0.0034M. They were further diluted in water to give appropriate concentration in a well. In the first step of Ellman's method 25 µL of the test compound (or mixture DMSO/water in appropriate ratio; i.e. blank samples) was incubated in 0.1 M phosphate buffer (200 µL, pH= 8.0) with DTNB (20 µL; 0.0025M) and the enzyme (20 µL; hAChE or hBuChE) in temperature 36 °C. […] All compounds were tested at screening concentration of 10 µM. Percent of inhibition was calculated from 100-(S/B)×100, where S and B were the respective enzyme activities with and without the test sample, respectively. […] All reactions were performed in triplicate. The IC50 values were calculated using nonlinear regression (GraphPad Prism 5 [GraphPad Software, San Diego California USA 5.00]) by plotting the residual enzyme activities against the applied inhibitor concentration. Tacrine was used as a reference compound.
(In Ellman's method for cholinesterases, released thiocholine reacts with DTNB.)

In assay [2] the target is T2, human recombinant acetylcholinesterase (hAChE) (Homo sapiens, UniProt P22303).
T2 construct: purchased Sigma-Aldrich
Kind of assay: Cholinesterase inhibition assay (Ellman), hAChE. Type of assay: biochemical. The procedure:
Inhibitory activities of the test compounds against the human cholinesterases were measured using the spectrophotometric method described by Ellman et al.^4, as modified for 96-well microplates. 5,5'-Dithiobis-(2-nitrobenzoic acid) (DTNB), acetylthiocholine iodide (ATC), butyrylthiocholine iodide (BTC), and human recombinant acetylcholinesterase (hAChE) were purchased from Sigma-Aldrich. Human butyrylcholinesterase (hBuChE) isolated from human plasma was from Vivonics (Bedford, MA, USA). […] In the first step of Ellman's method 25 µL of the test compound (or mixture DMSO/water in appropriate ratio; i.e. blank samples) was incubated in 0.1 M phosphate buffer (200 µL, pH= 8.0) with DTNB (20 µL; 0.0025M) and the enzyme (20 µL; hAChE or hBuChE) in temperature 36 °C. […] All compounds were tested at screening concentration of 10 µM. Percent of inhibition was calculated from 100-(S/B)×100, where S and B were the respective enzyme activities with and without the test sample, respectively. […] All reactions were performed in triplicate. The IC50 values were calculated using nonlinear regression (GraphPad Prism 5 [GraphPad Software, San Diego California USA 5.00]) by plotting the residual enzyme activities against the applied inhibitor concentration. Tacrine was used as a reference compound.

Assay [3] relates to voltage-gated Ca^2+ channels (VGCC). Description: Calcium channel antagonist assay (cytosolic Ca2+, Fluo-4). It is filed as cell-based. To be noted: SH-SY5Y cells, K+ 70 mM. On the procedure:
The cytosolic Ca2+ has been measured in SH-SY5Y cells. SH-SY5Y cells were maintained similarly to what was previously described56. Free cytosolic Ca2+ was measured using the fluorescent Ca2+ indicator Fluo-4/AM (Fluo-4 acetomethoxyester). SH-SY5Y cells were seeded onto 96-well black plates at a density of 10^5 cells per well, achieving confluence after 48 h. Cells were washed with Krebs-Hepes solution (KH, in mM: 144 NaCl, 5.9 KCl, 1.2 MgCl2, 2 CaCl2, 11 D-glucose, 10 HEPES, pH 7.4). Cells were loaded with 10 µM Fluo-4/AM and 0.2% pluronic acid in KH and incubated for 45 min at 37 °C in the dark. Then, cells were washed twice with KH to remove the excess of probe. Tested compounds were incubated 10 min before K+ 70 mM was applied to evoke the increment of cytosolic Ca2+. To normalize Fluo-4 signals, Triton X-100 (5%) and 1 M MnCl2 were applied to register both maximal and minimal fluorescence, respectively. The experiments were analyzed at excitation and emission wavelengths of 485 and 520 nm, respectively, and fluorescence was measured in a fluorescence microplate reader (FLUOstar Optima, BMG, Germany). Data were calculated as a percentage of Fmax - Fmin.
The blocking effect of the depolarization-induced Ca^2+ uptake was investigated in SH-SY5Y neuroblastoma cells stimulated with an extracellular concentration of K^+ 70 mM, which induces the cell Ca^2+ levels elevation by opening voltage-gated Ca^2+ channels (VGCC), monitored with the Ca^2+-sensitive fluorescent dye Fluo-4. Nimodipine was used as positive standard.

In the next assay the target is T3, Human recombinant GSK-3β (Homo sapiens, UniProt P49841).
T3 construct: purchased Millipore (Millipore Iberica S.A.U.)
Kind of assay: GSK-3β inhibition in vitro assay (Kinase-Glo luminescence). Type of assay: biochemical. The procedure:
Human recombinant GSK-3β, prephosphorylated polypeptide substrate and white 96-well plates were purchased from Millipore (Millipore Iberica S.A.U.). Kinase-Glo Luminescent Kinase Assay was obtained from Promega (Promega Biotech Iberica, SL). Adenosinetriphosphate (ATP) and all other reagents were from Sigma-Aldrich. Assay buffer contained 50 mM 4-(2-hydroxyethyl)-1- piperazineethanesulfonic acid (HEPES) (pH 7.5), 1 mM ethylenediaminetetraacetic acid (EDTA), 1 mM ethylene glycol tetraacetic acid (EGTA), and 15 mM magnesium acetate. The in solution experiments for GSK-3β inhibition analysis were performed by following the method developed by Baki et al.^18. In a typical assay, 10 µL of test compound (dissolved in DMSO at 1 mM concentration and diluted in advance in assay buffer to the desired concentration) and 10 µL (20 ng) of enzyme were added to each well in presence of 20 µL of assay buffer containing GSM substrate and ATP in order to reach a 25 µM and 1 µM final concentration respectively. […] After a 30 min incubation time at 30 °C, the enzymatic reaction was stopped by adding 40 µL of Kinase-Glo reagent. Glow-type luminescence was recorded after 10 min using a VictorX 3 PerkinElmer plate reader. […]. The linear regression parameters were determined and the IC50 extrapolated (GraphPad Prism 4.0, GraphPad Software Inc.).
(Kinase-Glo measures the ATP left after a reaction by luminescence.)

The target of a further assay is T4, human H3 receptor (Homo sapiens, UniProt Q9Y5N1).
T4 construct: expressed in transfected cells; host or cells: CHO-K1
Description: H3 Receptor Binding Assay (radioligand binding). The note with it: membranes from CHO-K1 cells, [3H]-N-α-methylhistamine 1.0 nM; read-out: H3R Ki [nM] ± SEM. On the procedure:
10 mM stock solutions of compounds to be tested were prepared in DMSO.
Radioligand binding was performed using membranes from CHO-K1 cells stably transfected with the human H3 receptor. All assays were carried out in duplicates. 50 µl working solution of the tested compounds, 50 µl [3H]-N-α-methylhistamine (spec. act. 82.9 Ci/mmol, final concentration 1.0 nM) and 150 µl diluted membranes (15 µg protein per well) prepared in assay buffer (50 mM Tris, pH 7.4, 5 mM MgCl2) were transferred to polypropylene 96-well microplate using 96-wells pipetting station Rainin Liquidator (MettlerToledo). […] Microplate was covered with a sealing tape, mixed and incubated for 60 minutes at 27°C. The reaction was terminated by rapid filtration through GF/B filter mate presoaked with 0.5% polyethyleneimine for 30 minutes. Five rapid washes with 300 µl 50 mM Tris buffer (4°C, pH 7.4) were performed using 96-well FilterMate harvester (PerkinElmer, USA). The filter mates were dried at 37°C in forced air fan incubator and then solid scintillator MeltiLex was melted on filter mates at 90°C for 4 minutes. Radioactivity was counted in MicroBeta2 scintillation counter (PerkinElmer). Data were fitted to a one-site curve-fitting equation with Prism 5 (GraphPad Software) and Ki values were estimated from the Cheng-Prusoff equation.

[4] abbreviates: read-out: cholinesterases inhibition.

Like-named read-outs stand apart in the source and are kept apart here.

T2 sequence (P22303 32-614): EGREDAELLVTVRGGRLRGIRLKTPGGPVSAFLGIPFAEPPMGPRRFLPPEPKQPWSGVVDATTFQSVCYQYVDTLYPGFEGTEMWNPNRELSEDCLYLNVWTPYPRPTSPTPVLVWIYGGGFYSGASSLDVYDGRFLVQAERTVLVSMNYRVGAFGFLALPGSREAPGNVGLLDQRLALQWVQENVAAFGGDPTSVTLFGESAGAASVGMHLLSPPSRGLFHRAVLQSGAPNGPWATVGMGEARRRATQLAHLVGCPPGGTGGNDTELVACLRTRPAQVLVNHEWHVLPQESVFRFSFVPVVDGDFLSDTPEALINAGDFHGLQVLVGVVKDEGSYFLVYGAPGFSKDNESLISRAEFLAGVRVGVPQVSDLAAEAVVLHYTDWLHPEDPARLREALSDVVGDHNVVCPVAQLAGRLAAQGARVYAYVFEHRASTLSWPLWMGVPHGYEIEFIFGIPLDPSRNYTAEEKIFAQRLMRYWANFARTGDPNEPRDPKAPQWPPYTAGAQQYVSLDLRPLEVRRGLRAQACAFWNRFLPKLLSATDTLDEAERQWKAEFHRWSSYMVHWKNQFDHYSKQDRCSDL
T1 sequence (P06276 29-602): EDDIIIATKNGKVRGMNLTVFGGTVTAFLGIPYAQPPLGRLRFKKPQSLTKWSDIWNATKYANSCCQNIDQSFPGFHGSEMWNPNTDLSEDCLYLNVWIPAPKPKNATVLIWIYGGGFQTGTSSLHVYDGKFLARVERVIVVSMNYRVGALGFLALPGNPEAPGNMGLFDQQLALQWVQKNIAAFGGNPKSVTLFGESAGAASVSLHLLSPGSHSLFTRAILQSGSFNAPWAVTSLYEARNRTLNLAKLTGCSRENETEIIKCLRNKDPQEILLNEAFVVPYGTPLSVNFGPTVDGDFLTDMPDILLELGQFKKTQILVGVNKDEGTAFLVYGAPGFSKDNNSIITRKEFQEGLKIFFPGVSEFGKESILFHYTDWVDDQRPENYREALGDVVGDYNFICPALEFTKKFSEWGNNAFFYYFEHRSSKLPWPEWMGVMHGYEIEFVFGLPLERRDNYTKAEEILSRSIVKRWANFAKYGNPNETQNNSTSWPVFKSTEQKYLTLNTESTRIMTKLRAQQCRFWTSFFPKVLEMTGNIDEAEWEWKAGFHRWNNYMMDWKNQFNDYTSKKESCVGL
T3 sequence (P49841 whole entry): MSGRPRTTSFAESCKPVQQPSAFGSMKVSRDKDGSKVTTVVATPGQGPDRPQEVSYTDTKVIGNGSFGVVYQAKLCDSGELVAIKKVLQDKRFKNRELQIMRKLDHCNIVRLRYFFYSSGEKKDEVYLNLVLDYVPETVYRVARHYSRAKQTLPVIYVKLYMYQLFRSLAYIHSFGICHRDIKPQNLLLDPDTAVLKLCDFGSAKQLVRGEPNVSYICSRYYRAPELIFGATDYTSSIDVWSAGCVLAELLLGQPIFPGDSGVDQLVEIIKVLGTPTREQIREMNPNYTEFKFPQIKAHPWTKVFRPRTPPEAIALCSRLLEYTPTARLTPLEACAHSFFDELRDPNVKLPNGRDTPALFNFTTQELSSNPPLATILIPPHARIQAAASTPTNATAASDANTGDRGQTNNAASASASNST
T4 sequence (Q9Y5N1 whole entry): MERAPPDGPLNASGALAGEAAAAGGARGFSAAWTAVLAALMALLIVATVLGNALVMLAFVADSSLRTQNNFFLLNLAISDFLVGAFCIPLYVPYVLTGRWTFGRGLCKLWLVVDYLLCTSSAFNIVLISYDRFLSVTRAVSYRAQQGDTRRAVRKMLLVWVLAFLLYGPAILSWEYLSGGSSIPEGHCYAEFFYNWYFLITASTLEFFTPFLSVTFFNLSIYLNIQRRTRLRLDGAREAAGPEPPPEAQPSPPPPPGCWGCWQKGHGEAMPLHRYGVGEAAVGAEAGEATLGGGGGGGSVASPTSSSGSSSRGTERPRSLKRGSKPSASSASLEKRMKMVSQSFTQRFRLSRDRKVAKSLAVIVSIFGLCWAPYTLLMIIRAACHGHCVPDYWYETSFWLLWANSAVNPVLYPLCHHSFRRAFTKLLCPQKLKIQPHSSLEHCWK

A word on the Ki: it is the dissociation constant of the complex between target and ligand, obtained from inhibition or displacement. Consider `CCOC(=O)C1=C(C)N(CCC2CCN(Cc3ccccc3)CC2)C(=O)NC1c1ccc(OCCCCN2CCCC2)cc1` (stereo not shown) [BIGI-BIH-D1, Ethyl 1-(2-(1-benzylpiperidin-4-yl)ethyl)-6-methyl-2-oxo-4-(4-(4-(pyrrolidin-1-yl)butoxy)phenyl)-1,2,3,4-tetrahydropyrimidine-5-carboxylate], for which the IC50 in assay [1] was 1720 ± 119 nM; in assay [2] (setting [4]), 63 nM; in assay [2] (read-out: hAChE IC50) it was 63 ± 1 nM; on Human recombinant GSK-3β (read-out: Gsk3β IC50), 59800 nM. For the same compound, the “Calcium Channel % inhibition at 10µM” value in assay [3] is recorded as 5%. Further, at human H3 receptor, the Ki came out at 2.8 ± 0.2 nM.
In the case of `CCOC(=O)C1=C(C)N(CCC2CCN(Cc3ccccc3)CC2)C(=O)NC1c1ccc(OCCCCN2CCCCC2)cc1` (stereo not shown) [BIGI-BIH-D2, Ethyl 1-(2-(1-benzylpiperidin-4-yl)ethyl)-6-methyl-2-oxo-4-(4-(4-(piperidin-1-yl)butoxy)phenyl)-1,2,3,4-tetrahydropyrimidine-5-carboxylate], the IC50 in assay [1] was determined as 928 ± 32 nM; in assay [2] (setting [4]) it was 123 nM; in assay [2] (read-out: hAChE IC50) it was 67 ± 1 nM; on Human recombinant GSK-3β (read-out: Gsk3β IC50) it was 106000 nM. For the same compound, the “Calcium Channel % inhibition at 10µM” value in assay [3] was 13%. Besides, the Ki at human H3 receptor is 0.6 ± 0.08 nM.
For the compound `CCOC(=O)C1=C(C)N(CCC2CCN(Cc3ccccc3)CC2)C(=O)NC1c1ccc(OCCCCN2CCOCC2)cc1` (stereo not shown) [BIGI-BIH-D3, Ethyl 1-(2-(1-benzylpiperidin-4-yl)ethyl)-6-methyl-4-(4-(4-morpholinobutoxy)phenyl)-2-oxo-1,2,3,4-tetrahydropyrimidine-5-carboxylate], the figures for the IC50 (in assay [2] (read-out: hAChE IC50); on Human recombinant GSK-3β (read-out: Gsk3β IC50)) were 123 ± 2 nM and 126000 nM, respectively. The “Calcium Channel % inhibition at 10µM” value in assay [3] worked out at 23%. Further, the Ki on human H3 receptor was found to be 12 ± 0.5 nM.
On to `CCOC(=O)C1=C(C)N(CCC2CCN(Cc3ccccc3)CC2)C(=O)NC1c1ccc(OCCCCCN2CCCC2)cc1` (stereo not shown) [BIGI-BIH-D4, Ethyl 1-(2-(1-benzylpiperidin-4-yl)ethyl)-6-methyl-2-oxo-4-(4-((5-(pyrrolidin-1-yl)pentyl)oxy)phenyl)-1,2,3,4-tetrahydropyrimidine-5-carboxylate], for which the IC50 in assay [1] was found to be 1390 ± 66 nM; in assay [2] (read-out: hAChE IC50) it was 88 ± 2 nM; on Human recombinant GSK-3β, 60500 nM. For the same compound, the “Calcium Channel % inhibition at 10µM” value in assay [3] came to 22%. For the same compound, the Ki at human H3 receptor was determined as 0.5 ± 0.05 nM.
As for `CCOC(=O)C1=C(C)N(CCC2CCN(Cc3ccccc3)CC2)C(=O)NC1c1ccc(OCCCCCN2CCCCC2)cc1` (stereo not shown) [BIGI-BIH-D5, Ethyl 1-(2-(1-benzylpiperidin-4-yl)ethyl)-6-methyl-2-oxo-4-(4-((5-(piperidin-1-yl)pentyl)oxy)phenyl)-1,2,3,4-tetrahydropyrimidine-5-carboxylate], the results for the IC50 (in assay [1]; in assay [2] (read-out: hAChE IC50); on Human recombinant GSK-3β (read-out: Gsk3β IC50)) were 1280 ± 72 nM, 67 ± 1 nM and 26300 nM, respectively. Further, in assay [3], the “Calcium Channel % inhibition at 10µM” value worked out at 34%. For the same compound, the Ki on human H3 receptor came out at 0.3 ± 0.07 nM.
With `CCOC(=O)C1=C(C)N(CCC2CCN(Cc3ccccc3)CC2)C(=O)NC1c1ccc(OCCCCCN2CCOCC2)cc1` (stereo not shown) [BIGI-BIH-D6, Ethyl 1-(2-(1-benzylpiperidin-4-yl)ethyl)-6-methyl-4-(4-((5-morpholinopentyl)oxy)phenyl)-2-oxo-1,2,3,4-tetrahydropyrimidine-5-carboxylate], the values for the IC50 (in assay [2] (read-out: hAChE IC50); at Human recombinant GSK-3β (read-out: Gsk3β IC50)) were 115 ± 2 nM and 56600 nM, respectively. Further, the “Calcium Channel % inhibition at 10µM” value in assay [3] turned out to be 39%. Also, the Ki at human H3 receptor was 0.6 ± 0.05 nM.
With `CCOC(=O)C1=C(C)N(CCC2CCN(Cc3ccccc3)CC2)C(=O)NC1c1ccc(OCCCCCCN2CCCC2)cc1` (stereo not shown) [BIGI-BIH-D7, Ethyl 1-(2-(1-benzylpiperidin-4-yl)ethyl)-6-methyl-2-oxo-4-(4-((6-(pyrrolidin-1-yl)hexyl)oxy)phenyl)-1,2,3,4-tetrahydropyrimidine-5-carboxylate], the values for the IC50 (in assay [1]; in assay [2] (read-out: hAChE IC50); on Human recombinant GSK-3β (read-out: Gsk3β IC50)) were 768 ± 13 nM, 89 ± 2 nM and 30600 nM, respectively. Also, the “Calcium Channel % inhibition at 10µM” value in assay [3] worked out at 47%. Moreover, on human H3 receptor, the Ki turned out to be 0.2 ± 0.04 nM.
With `CCOC(=O)C1=C(C)N(CCC2CCN(Cc3ccccc3)CC2)C(=O)NC1c1ccc(OCCCCCCN2CCOCC2)cc1` (stereo not shown) [BIGI-BIH-D9, Ethyl 1-(2-(1-benzylpiperidin-4-yl)ethyl)-6-methyl-4-(4-((6-morpholinohexyl)oxy)phenyl)-2-oxo-1,2,3,4-tetrahydropyrimidine-5-carboxylate], the IC50 in assay [2] (read-out: hAChE IC50) worked out at 115 ± 2 nM; at Human recombinant GSK-3β, 38600 nM. Also, in assay [3], the “Calcium Channel % inhibition at 10µM” value is 61%. At human H3 receptor, the Ki amounted to 3 ± 0.4 nM.
Consider `COCCOC(=O)C1=C(C)NC(C)=C(C(=O)OC(C)C)C1c1cccc([N+](=O)[O-])c1` (stereo not shown) [Nimodipine, reference compound], for which, in assay [3], the “Calcium Channel % inhibition at 10µM” value was found to be 38%.
